The record followed here is patent publication US12186332B2, “Methods for overcoming WNT/beta-catenin anti-cancer resistance in leukemia stem cells” (STOWERS INSTITUTE FOR MEDICAL RESEARCH, priority 2019, dated 2025).

The test system of the assay is human T-ALL blasts and pS^552-β-cat^+ LSCs. In words: Patient-derived xenografts of MRD+ pediatric T-ALL treated with [Low]DXR. Format: in vivo. The following applies: [Low]DXR 5 days, two weeks after transplantation; Pt 057, Pt 062. From the text: Shown is T-ALL blasts (CD45^+ c-Kit^−ve CD3^+) in Pt 057. Graphs indicate frequency of human CD45^+ cells (%)+SD.
Graphs indicate frequency of human CD45^+ cells (%)±SD.

With `COc1cccc2c1C(=O)c1c(O)c3c(c(O)c1C2=O)C[C@@](O)(C(=O)CO)C[C@@H]3O[C@H]1C[C@H](N)[C@H](O)[C@H](C)O1` [DXR, doxorubicin], the “engraftment of bulk blast cells” value was “not significantly changed” and the “pS552-β-cat+ LSCs” value is “significantly reduced”.
